Source: publication PMC8888699, “Crystal structure and catalytic mechanism of the MbnBC holoenzyme required for methanobactin biosynthesis” (Cell Research, 2022)
Read-outs that look alike come from different tables or passages of the source. Ends that are not written are not given here. Peptide text beside a SMILES is read from it.

Tests used:
RrMbnBC [1] = biological target: T1, RrMbnBC (Rugamonas rubra, UniProt A0A1I4IFH0+A0A1I4IFL0); test: UV-Vis activity assay, MbnA modification by RrMbnBC; assay type: biochemical, Rugamonas rubra ATCC 43154; conditions: co-expressed in Escherichia coli
T1 sequence (A0A1I4IFL0 1-277): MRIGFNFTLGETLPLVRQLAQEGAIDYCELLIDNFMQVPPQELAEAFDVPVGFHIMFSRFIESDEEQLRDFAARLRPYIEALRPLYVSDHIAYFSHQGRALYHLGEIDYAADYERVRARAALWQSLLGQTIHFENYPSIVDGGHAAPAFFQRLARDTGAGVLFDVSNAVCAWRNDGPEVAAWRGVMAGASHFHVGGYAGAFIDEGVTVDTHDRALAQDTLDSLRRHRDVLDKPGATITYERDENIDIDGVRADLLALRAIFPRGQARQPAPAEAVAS
T1 sequence (A0A1I4IFH0 1-199): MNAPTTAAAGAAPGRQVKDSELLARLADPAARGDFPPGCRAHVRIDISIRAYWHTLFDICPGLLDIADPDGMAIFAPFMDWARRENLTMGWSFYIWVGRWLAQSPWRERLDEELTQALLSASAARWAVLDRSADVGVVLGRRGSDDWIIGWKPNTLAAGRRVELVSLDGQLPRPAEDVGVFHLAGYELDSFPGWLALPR
Experimental: Standard UV-Vis spectra detection was performed on a UV-Vis and Vis instrument (Ultrospec 2100 pro, Biochrom, UK) at room temperature. MtMbnBC and RrMbnBC proteins were adjusted to 5 mg/mL (nearly 100 μM), and VcMbnBC was adjusted to a concentration of 1 mg/mL (nearly 20 μM). The corresponding substrates, VcMbnA, RrMbnA, MtMbnA, and their variants (Supplementary information, Table S5), were dissolved in distilled water and diluted to a working concentration of 5 mM with buffer B. The reaction was initiated when 100 μL MbnBC proteins and 5 μL MbnA peptides were applied to the reaction system, and the reaction was diluted up to 1 mL with buffer B. The mixture was then added into a quartz cuvette and recorded at 20-s intervals for a total of 50 reads at room temperature. For assays using anaerobically prepared MbnBC proteins, the measurements were immediately recorded by adding the anaerobically prepared MbnBC into the reaction system, with peptides pre-mixed in the quartz cuvette. The buffer B used in the assay was O2-saturated at room temperature.
For the stopped-flow UV-Vis spectroscopic analysis, 10 μM MtMbnBC or RrMbnBC or 2 μM VcMbnBC was incubated with 250 μM MbnA peptides at room temperature for 1 h, followed by detection on a UV-Vis and Vis instrument (Nanodrop One, Thermo Scientific, MA). Data were processed by Graphpad Prism version 8.3.

RrMbnBC [2] = biological target: T1, RrMbnBC; test: Limited proteolysis assay of RrMbnBC with MbnA; set-up: species or system Rugamonas rubra ATCC 43154; conditions: ~20 µM RrMbnBC incubated with MbnA 1 h at 4 °C, trypsin 30 min on ice, SDS-PAGE
Experimental: The limited proteolysis assay allows the characterization of the increase in stability of wild-type proteins upon binding to their substrates. The VcMbnBC and RrMbnBC proteins used in this assay were all adjusted to an equal molar concentration of about 20 µM. The RrMbnBC or VcMbnBC complex, by itself or after incubation with the corresponding MbnA peptide for 1 h at 4 °C, was digested by trypsin. After 30 min of incubation on ice, the proteolyzed products were analyzed by SDS-PAGE and visualized by Coomassie blue staining.

VcMbnBC = test: ITC measurement of VcMbnA and variants binding affinity to VcMbnBC; set-up: species or system Vibrio caribbenthicus BAA-2122
Experimental: MbnBC and the mutant proteins were all purified using the two-step standard method described above. The purified proteins were adjusted to 1 mg/mL and stored in 25 mM HEPES (pH 8.0) and 100 mM NaCl for ITC measurement. The MbnAs were dissolved and diluted to a working concentration of 2 mM in distilled water. ITC experiments were performed on a Nano ITC (Nano ITC-Low Volume; TA instrument, USA). Settings for the MbnA binding assay were optimized as follows: the titration assay was performed at 16 °C by injecting 2.5 μL MbnA peptide into a full cell containing 190 μL MbnBC or mutant MbnBC proteins every 120 s for a total of 20 injections, and the stirrer syringe stirring speed was set at 250 rpm.

RrMbnBC complex [3] = biological target: T2, RrMbnBC complex (Rugamonas rubra ATCC 43154); test: ITC
T2 chain 1: T1 sequence (A0A1I4IFL0 1-277)
T2 chain 2: T1 sequence (A0A1I4IFH0 1-199)

RrMbnBC complex [4] = biological target: T2, RrMbnBC complex; test: ITC
VcMbnBC complex = biological target: T3, VcMbnBC complex (Vibrio caribbenthicus BAA-2122); test: ITC
T3 chain 1: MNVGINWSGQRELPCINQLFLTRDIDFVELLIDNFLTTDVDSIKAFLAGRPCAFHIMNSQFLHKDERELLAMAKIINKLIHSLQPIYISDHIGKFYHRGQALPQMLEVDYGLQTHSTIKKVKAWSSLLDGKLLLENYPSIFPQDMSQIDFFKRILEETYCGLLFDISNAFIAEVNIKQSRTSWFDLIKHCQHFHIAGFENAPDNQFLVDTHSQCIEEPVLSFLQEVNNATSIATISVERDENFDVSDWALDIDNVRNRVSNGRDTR
T3 chain 2: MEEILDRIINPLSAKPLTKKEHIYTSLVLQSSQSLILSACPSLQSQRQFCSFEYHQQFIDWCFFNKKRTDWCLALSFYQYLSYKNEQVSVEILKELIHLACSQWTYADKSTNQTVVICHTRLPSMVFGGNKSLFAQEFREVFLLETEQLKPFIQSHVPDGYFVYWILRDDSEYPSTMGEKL

CC[C@H](C)[C@H](NC(=O)[C@H](CCC(=O)O)NC(=O)[C@@H](NC(=O)[C@H](CCCCN)NC(=O)[C@H](CCCCN)NC(=O)[C@@H](NC(=O)[C@@H](NC(=O)[C@@H](NC(=O)[C@@H](NC(=O)[C@H](CCCCN)NC(=O)[C@@H](N)CCSC)[C@@H](C)CC)C(C)C)[C@@H](C)CC)C(C)C)C(C)C)C(=O)N[C@@H](CCC(N)=O)C(=O)N[C@H](C(=O)N[C@@H](C)C(=O)NCC(=O)N[C@@H](CCCNC(=N)N)C(=O)N[C@H](C(=O)NCC(=O)N[C@@H](CCSC)C(=O)N[C@@H](CCCNC(=N)N)C(=O)N[C@@H](CS)C(=O)N[C@@H](C)C(=O)N[C@@H](CO)C(=O)N[C@@H](CO)C(=O)N[C@@H](CS)C(=O)NCC(=O)N[C@@H](C)C(=O)N[C@@H](CCCCN)C(=O)N[C@@H](CO)C(=O)O)[C@@H](C)O)C(C)C [RrMbnA] (H-MKIVIVKKVEIQVAGRTGMRCASSCGAKS-OH)
modification by co-expressed RrMbnBC, UV-Vis absorption at ~335 nm (RrMbnBC [1]): could be modified | effect on RrMbnBC stability in limited proteolysis (RrMbnBC [2]): enhance RrMbnBC stability

MKNDKKVVVKVKDKEM [LP]
interaction with VcMbnBC (binding assays, in words) (VcMbnBC; ITC binding assays of VcMbnBC with VcMbnA variants): weak interaction | Kd (VcMbnBC; ITC, 16 °C, 2 mM peptide, 20 injections of 2.5 μL into 190 μL VcMbnBC 1 mg/mL in 25 mM HEPES pH 8.0, 100 mM NaCl, one-site binding, read-out: Kd, VcMbnA or variant/VcMbnBC): 63.8 ± 10.5 µM

MKIVIVKKVEIQVAGRTGMRCASSCGAKS [RrMbnA peptide]
Kd (RrMbnBC complex [3]): 2.7 µM

MKNDKKVVVKVKDKEMTCGAFNK [VcMbnA peptide]
Kd (RrMbnBC complex [4]): 4.14 µM | Kd (VcMbnBC complex): 3 µM
